Patent publication US8901315B2, “Thienopyrazole derivative having PDE7 inhibitory activity” (Daiichi Sankyo Company, Limited, priority 2004, dated 2014)

How the values were obtained:
[1] = target: PDE 7 (phosphodiesterase VII) (Homo sapiens (Human), UniProt Q13946); test: PDE 7 inhibiting effect (3H-cAMP hydrolysis, PDE 7 active fraction from MOLT-4 cells); type: biochemical; conditions: PDE 7 fraction from MOLT-4 cells, 0.064 μM cAMP, 10 μM rolipram, 2 hours at 25° C.; read-out: PDE7 IC50
Method: Methods for Evaluating the PDE 7 Inhibiting Effect
The PDE 7 (phosphodiesterase VII) inhibiting effect of the compounds of the present invention was performed by the following method, which was modified assay method described in Biochemical. Pharmacol. 48(6), 1219-1223 (1994). • (1) The active fraction of PDE 7 (phosphodiesterase VII) was obtained. That is, MOLT-4 (obtainable from ATCC as ATCC No. CRL-1582), which was cell line of human acute lymphoblastic lymphoma T cells, was incubated in RPMI1640 culture medium containing 10% fetal bovine serum to obtain 5×10^8 MOLT-4 cells. The cells were collected by centrifugation and suspended with 10 mL of buffer solution A [25 mM of tris-HCl, 5 mM of 2-mercaptoethanol, 2 mM of benzamidine, 2 mM of EDTA, 0.1 mM of 4-(2-aminoethyl)benzenesulfonyl hydrochloride; pH 7.5], then homogenized by Polytron® homogenizer. The homogenate were centrifuged under 25,000×G for 10 minutes at 4° C. The supernatant was separated and thus obtained supernatant was further centrifuged under 100,000×G for 60 minutes at 4° C., and then filtrated with 0.2 μm filter to obtain the soluble fraction. • (2) The obtained soluble fraction was filled in equilibrium HiTrap Q column (5 mL×2) with buffer solution A, and phosphodiesterase fractions were eluted by 300 mL of buffer solution A with linear gradient from 0 to 0.8 M NaCl concentration. 5 mL each of 60 eluents were collected, and each eluents were examined for cyclic AMP metabolic activities of phosphodiesterase. […] After the reaction, suspension of Sephadex®-QAE in 10 mM of HEPES-Na (pH 7.0) was added to the reaction mixture, and the mixture was left at rest for 5 minutes.

[2] = target: PDE 4 (phosphodiesterase IV); test: PDE 4 inhibiting effect (3H-cAMP hydrolysis, PDE 4 active fraction from Balb/c mouse liver); type: biochemical; conditions: PDE 4 fraction from Balb/c mice liver, 0.064 μM cAMP, 2 hours at 25° C.; read-out: PDE4 IC50
Method: Methods for Evaluating the PDE 4 Inhibiting Effect
The PDE 4 (phosphodiesterase IV) inhibiting effect of the compounds of the present invention was performed by the following method, which was modified assay method described in Biochemical. […] That is, the livers obtained from three Balb/c mice (male, 12 weeks: obtainable from CLEA Japan, Inc.) were suspended with 30 mL of buffer solution B [20 mM of bis-tris, 5 mM of 2-mercaptoethanol, 2 mM of benzamidine, 2 mM of EDTA, 0.1 mM of 4-(2-aminoethyl)benzenesulfonyl hydrochloride, 50 mM of sodium acetate; pH 6.5], then homogenized by Polytron® homogenizer. The homogenate were centrifuged under 25,000×G for 10 minutes at 4° C. The supernatant was separated and thus obtained supernatant was further centrifuged under 100,000×G for 60 minutes at 4° C., and then filtrated with 0.2 μm filter to obtain the soluble fraction. • (2) The obtained soluble fraction was filled in equilibrium DEAE sepharose column (1×10 cm) with buffer solution B, and phosphodiesterase fractions were eluted by 120 mL of buffer solution B with linear gradient from 0.05 to 1M sodium acetate concentration. 5 mL each of 24 eluents were collected, and each eluents were examined for cyclic AMP metabolic activities of phosphodiesterase. […] After the reaction, suspension of Sephadex®-QAE in 10 mM of HEPES-Na (pH 7.0) was added to the reaction mixture, and the mixture was left at rest for 5 minutes.

Sequence of PDE 7 (phosphodiesterase VII) (Q13946 whole entry): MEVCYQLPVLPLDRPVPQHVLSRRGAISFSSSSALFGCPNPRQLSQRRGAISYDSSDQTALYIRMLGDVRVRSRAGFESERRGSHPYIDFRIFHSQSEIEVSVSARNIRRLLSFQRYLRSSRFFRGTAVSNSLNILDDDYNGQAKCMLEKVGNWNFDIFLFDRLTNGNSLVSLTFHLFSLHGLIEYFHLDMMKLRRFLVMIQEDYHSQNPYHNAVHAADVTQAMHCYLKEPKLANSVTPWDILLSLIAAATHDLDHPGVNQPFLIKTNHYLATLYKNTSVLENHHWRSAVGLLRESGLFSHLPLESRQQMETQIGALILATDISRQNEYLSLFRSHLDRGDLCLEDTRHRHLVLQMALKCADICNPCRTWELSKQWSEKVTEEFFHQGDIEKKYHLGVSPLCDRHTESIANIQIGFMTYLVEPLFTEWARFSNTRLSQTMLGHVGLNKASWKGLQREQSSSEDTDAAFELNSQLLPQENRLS

Row | Structure (SMILES) | IC50 [1] [nM] | IC50 [2] [µM]
1 | COC(=O)c1ccc(NC(=O)c2cc3c(C)nn(C4CCCCC4)c3s2)cn1 [Example 102, Methyl 5-{[(1-Cyclohexyl-3-methyl-1H-thieno[2,3-c]pyrazol-5-yl)-carbonyl]amino}-2-pyridinecarboxylate] | 85 | 5.5
2 | Cc1nn(C2CCCCC2)c2sc(C(=O)Nc3ccc(NC=O)cc3)cc12 [Example 53, 1-Cyclohexyl-N-[4-(formylamino)phenyl]-3-methyl-1H-thieno[2,3-c]pyrazole-5-carboxamide] | 55 | 3.5
3 | Cc1nn(C2CCCCC2)c2sc(C(=O)Nc3ccc(C(=O)NCCO)cc3)cc12 [Example 46, 1-Cyclohexyl-N-(4-{[(2-hydroxyethyl)amino]carbonyl}phenyl)-3-methyl-1H-thieno[2,3-c]pyrazole-5-carboxamide] | 30 | 2
4 | Cc1nn(C2CCCCC2)c2sc(C(=O)Nc3ccc(N4CCNC4=O)nc3)cc12 [Example 256, 1-Cyclohexyl-3-methyl-N-[6-(2-oxo-1-imidazolidinyl)-3-pyridinyl]-1H-thieno[2,3-c]pyrazole-5-carboxamide] | 2 | 0.81
5 | Cc1nn(C2CCCCC2)c2sc(C(=O)Nc3ccc(N4CCN(C)CC4)cc3)cc12 [Example 106, 1-Cyclohexyl-3-methyl-N-[4-(4-methyl-1-piperazinyl)phenyl]-1H-thieno[2,3-c]pyrazole-5-carboxamide] | 9 | 1.2
6 | Cc1nn(C2CCCCC2)c2sc(C(=O)N[C@H](C)CN3C(=O)CNC3=O)cc12 [Example 325, 1-Cyclohexyl-N-[(1R)-2-(2,5-dioxo-1-imidazolidinyl)-1-methylethyl]-3-methyl-1H-thieno[2,3-c]pyrazole-5-carboxamide] | 34 | 4
7 | CC[C@H](CN1C(=O)CNC1=O)NC(=O)c1cc2c(C)nn(C3CCCCC3)c2s1 [Example 331, 1-Cyclohexyl-N-{(1R)-1-[(2,5-dioxo-1-imidazolidinyl)methyl]propyl}-3-methyl-1H-thieno[2,3-c]pyrazole-5-carboxamide] | 29 | 4.9
8 | CCOC(=O)Nc1ccc(NC(=O)c2cc3c(C)nn(C4CCCCC4)c3s2)cc1 [Example 12, Ethyl 4-{[(1-cyclohexyl-3-methyl-1H-thieno[2,3-c]pyrazol-5-yl)-carbonyl]amino}phenylcarbamate] | 53 | 5
9 | Cc1nn(C2CCCCC2)c2sc(C(=O)N[C@H]3CC[C@H](CO)CC3)cc12 [Example 206, 1-Cyclohexyl-N-[4-(hydroxymethyl)cyclohexyl]-3-methyl-1H-thieno[2,3-c]pyrazole-5-carboxamide] | 50 | 3.8
10 | Cc1nn(C2CCCCC2)c2sc(C(=O)N[C@H]3CC[C@H](N4C(=O)CCC4=O)CC3)cc12 [Example 273, 1-Cyclohexyl-N-[trans-4-(2,5-dioxo-1-pyrrolidinyl)cyclohexyl]-3-methyl-1H-thieno[2,3-c]pyrazole-5-carboxamide] | 14 | 1.6
11 | CC(=O)N1CCN(c2ccc(NC(=O)c3cc4c(C)nn(C5CCCCC5)c4s3)cc2)CC1 [Example 73, N-[4-(4-Acetyl-1-piperazinyl)phenyl]-1-cyclohexyl-3-methyl-1H-thieno[2,3-c]pyrazole-5-carboxamide] | 12 | 1
12 | Cc1nn(C2CCOCC2)c2sc(C(=O)Nc3ccc(N4CCNC4=O)nc3)cc12 [Example 261] | 28 | 1.9
13 | CCOC(=O)c1ccc(NC(=O)c2cc3c(C)nn(C4CCCCC4)c3s2)cc1 [Example 40, Ethyl 4-{[(1-cyclohexyl-3-methyl-1H-thieno[2,3-c]pyrazol-5-yl)-carbonyl]amino}benzoate] | 75 | 15
14 | Cc1nn(C2CCCCC2)c2sc(C(=O)NCCN3CCN(C)C3=O)cc12 [Example 302, 1-Cyclohexyl-3-methyl-N-[2-(3-methyl-2-oxo-imidazolidinyl)ethyl]-1H-thieno[2,3-c]pyrazole-5-carboxamide] | 60 | 6.1
15 | Cc1nn(C2CCCCC2)c2sc(C(=O)Nc3ccc(C(=O)NC(C)C)cc3)cc12 [Example 45, 1-Cyclohexyl-N-{4-[(isopropylamino)carbonyl]phenyl}-3-methyl-1H-thieno[2,3-c]pyrazole-5-carboxamide] | 50 | 12
16 | COc1cc(NC(=O)c2cc3c(C)nn(C4CCCCCC4)c3s2)ccc1NC(C)=O [Example 115, N-[4-(Acetylamino)-3-methoxyphenyl]-1-cycloheptyl-3-methyl-1H-thieno[2,3-c]pyrazole-5-carboxamide] | 40 | 1.5
17 | Cc1nn(C2CCCCC2)c2sc(C(=O)N[C@H]3CC[C@H](C(=O)O)CC3)cc12 [Example 205, 4-{[(1-Cyclohexyl-3-methyl-1H-thieno[2,3-c]pyrazol-5-yl)carbonyl]-amino}cyclohexane carboxylic acid] | 91 | 14
18 | Cc1nn(C2CCCCC2)c2sc(C(=O)Nc3ccc4c(c3)CCN4C(=O)C3CC3)cc12 [Example 58, 1-Cyclohexyl-N-[1-(cyclopropylcarbonyl)-2,3-dihydro-1H-indol-5-yl]-3-methyl-1H-thieno[2,3-c]pyrazole-5-carboxamide] | 36 | 3.6
19 | Cc1nn(C2CCCCC2)c2sc(C(=O)Nc3ccc(N4CCNC(=O)C4)cc3)cc12 [Example 341, 1-Cyclohexyl-3-methyl-N-[4-(3-oxo-1-piperazinyl)phenyl]-1H-thieno[2,3-c]pyrazole-5-carboxamide] | 5 | 1.8
20 | Cc1nn(C2CCCCC2)c2sc(C(=O)Nc3ccc(N4CCC(O)CC4)c(Cl)c3)cc12 [Example 162, N-[3-Chloro-4-(4-hydroxy-piperidinyl)phenyl]-1-cyclohexyl-3-methyl-1H-thieno[2,3-c]pyrazole-5-carboxamide] | 70 | 2
21 | Cc1nn(C2CCOCC2)c2sc(C(=O)N[C@H]3CC[C@H](N4CCN(S(C)(=O)=O)CC4)CC3)cc12 [Example 396, 3-Methyl-N-{trans-4-[4-(methylsulfonyl)-1-piperazinyl]cyclohexyl}-1-tetrahydro-2H-pyran-4-yl-1H-thieno[2,3-c]pyrazole-5-carboxamide] | 22 | 0.9
22 | CC(=O)N1CCN(Cc2ccc(NC(=O)c3cc4c(C)nn(C5CCCCC5)c4s3)cn2)CC1 [Example 414, N-{6-[(4-Acetyl-1-piperazinyl)methyl]-3-pyridinyl}-1-cyclohexyl-3-methyl-1H-thieno[2,3-c]pyrazole-5-carboxamide] | 35 | 2.8
23 | CC(=O)N1CCN(C[C@H]2CC[C@H](NC(=O)c3cc4c(C)nn(C5CCOCC5)c4s3)CC2)CC1 [Example 360, N-{trans-4-[(4-Acetyl-1-piperazinyl)methyl]cyclohexyl}-3-methyl-1-tetrahydro-2H-pyran-4-yl-1H-thieno[2,3-c]pyrazole-5-carboxamide] | 57 | 7.9
24 | Cc1nn(C2CCCCC2)c2sc(C(=O)NC3CCN(C(=O)N(C)C)CC3)cc12 [Example 235, 1-Cyclohexyl-N-{1-[(dimethylamino)carbonyl]-4-piperidinyl}-3-methyl-1H-thieno[2,3-c]pyrazole-5-carboxamide] | 17 | 2.8
25 | Cc1nn(C2CCCCC2)c2sc(C(=O)N[C@H]3CC[C@H](N4CCNCC4)CC3)cc12 [Example 188, 1-Cyclohexyl-3-methyl-N-[trans-4-(1-piperazinyl)cyclohexyl]-1H-thieno[2,3-c]pyrazole-5-carboxamide] | 6.5 | 0.7
26 | CNC(=O)COc1ccc(NC(=O)c2cc3c(C)nn(C4CCCCC4)c3s2)cc1 [Example 67] | 23 | 3.5
